Source: ChEMBL document CHEMBL1149146, “Synthesis and biological evaluation of new 1,2-dihydro-4-hydroxy-2-oxo-3-quinolinecarboxamides for treatment of autoimmune disorders: structure-activity relationship” (2004)

How the values were obtained:
Format in all cases: functional
Mus musculus [1] = experiment: Inhibition of acute experimental autoimmune encephalomyelitis (aEAE) induced in SJL/N mice at a dose of 1 mg/kg/day, (po) was determined; Inactive
Mus musculus [2] = experiment: Inhibition of acute experimental autoimmune encephalomyelitis (aEAE) induced in SJL/N mice at a dose of 5 mg/kg/day, (po) was determined; Inactive
Mus musculus [3] = experiment: Inhibition of acute experimental autoimmune encephalomyelitis in SJL/N mice by 0.2 mg/kg/day p.o.; conditions: route oral
Mus musculus [4] = experiment: Inhibition of acute experimental autoimmune encephalomyelitis (aEAE) induced in SJL/N mice at a dose of 1 mg/kg/day, (po)
Mus musculus [5] = experiment: Inhibition of acute experimental autoimmune encephalomyelitis in SJL/N mice by 5 mg/kg/day p.o.; conditions: route oral
Mus musculus [6] = experiment: Inhibition of acute experimental autoimmune encephalomyelitis (aEAE) induced in SJL/N mice at a dose of 0.2 mg/kg/day, (po) was determined; Inactive
Mus musculus [7] = experiment: Inhibition of acute experimental autoimmune encephalomyelitis (aEAE) induced in SJL/N mice at a dose of 5 mg/kg/day, (sc) was determined; Inactive
Mus musculus [8] = experiment: Inhibition of acute experimental autoimmune encephalomyelitis in SJL/N mice by 1 mg/kg/day p.o./s.c.; conditions: route oral
Mus musculus [9] = experiment: Inhibition of acute experimental autoimmune encephalomyelitis in SJL/N mice by 0.2 mg/kg/day p.o./s.c.; conditions: po
Mus musculus [10] = experiment: Inhibition of acute experimental autoimmune encephalomyelitis in SJL/N mice by 5 mg/kg/day p.o./s.c.; conditions: route oral

Compound | inhibition in vivo at 0.2 mg/kg/day (Mus musculus [3]) | inhibition in vivo at 1 mg/kg/day (Mus musculus [4]) | inhibition in vivo at 1 mg/kg/day (Mus musculus [8]) | inhibition in vivo at 0.2 mg/kg/day (Mus musculus [9]) | inhibition in vivo at 5 mg/kg/day (Mus musculus [10]) | further results
CN(C(=O)c1c(O)c2c(Oc3ccc(F)cc3)cccc2n(C)c1=O)c1ccccc1 | – | – | – | – | – | inhibition in vivo at 1 mg/kg/day (Mus musculus [1]): < 35%; inhibition in vivo at 5 mg/kg/day (Mus musculus [2]): < 35%
CCN(C(=O)c1c(O)c2c(Br)cccc2n(C)c1=O)c1ccccc1 | 57% | 95% | – | – | – | –
COc1cccc2c1c(O)c(C(=O)N(C)c1ccc(C(C)(C)C)cc1)c(=O)n2C | 60% | 84% | – | – | – | inhibition in vivo at 5 mg/kg/day (Mus musculus [5]): 98%
CN(C(=O)c1c(O)c2c([N+](=O)[O-])cccc2n(C)c1=O)c1ccccc1 | 46% | 96% | – | – | – | inhibition in vivo at 5 mg/kg/day (Mus musculus [5]): 100%
CCN(C(=O)c1c(O)c2cc(C)ccc2n(C)c1=O)c1ccccc1 | – | – | – | – | – | inhibition in vivo at 1 mg/kg/day (Mus musculus [1]): < 35%; inhibition in vivo at 0.2 mg/kg/day (Mus musculus [6]): < 35%
CCN(C(=O)c1c(O)c2c3c(ccc2n(C)c1=O)OCO3)c1ccccc1 | 58% | 75% | – | – | – | inhibition in vivo at 5 mg/kg/day (Mus musculus [5]): 99%
CN(C(=O)c1c(O)c2ccccc2n(-c2ccccc2)c1=O)c1ccccc1 | – | – | – | – | – | inhibition in vivo at 5 mg/kg/day (Mus musculus [7]): < 35%
CCc1cccc2c1c(O)c(C(=O)N(CC)c1ccccc1)c(=O)n2C [PAQUINIMOD] | 81% | 100% | – | – | – | –
CN(C)c1ccc2c(c1)c(O)c(C(=O)N(C)c1ccccc1)c(=O)n2C | – | – | – | – | – | inhibition in vivo at 5 mg/kg/day (Mus musculus [2]): < 35%
COc1cccc2c1c(O)c(C(=O)N(C)c1cccc(C(C)(C)C)c1)c(=O)n2C | 38% | 60% | – | – | – | inhibition in vivo at 5 mg/kg/day (Mus musculus [5]): 84%
CCN(C(=O)c1c(O)c2cc(C(F)(F)F)ccc2n(C)c1=O)c1ccccc1 | – | 57% | – | – | – | inhibition in vivo at 0.2 mg/kg/day (Mus musculus [6]): < 35%
CCN(C(=O)c1c(O)c2c(OC)cccc2n(C)c1=O)c1ccccc1 | – | – | 73% | 69% | 86% | –
CN(C(=O)c1c(O)c2cc(Cl)ccc2n(C)c1=O)c1ccccc1 | – | – | 100% | 81% | 100% | –
Cc1ccc2c(c1)c(O)c(C(=O)N(C)c1ccccc1)c(=O)n2C | – | – | 79% | 62% | 100% | –
CN(C(=O)c1c(O)c2cc(OC(F)(F)F)ccc2n(C)c1=O)c1ccccc1 | – | – | 72% | 63% | 96% | –
CCN(C(=O)c1c(O)c2cc(OC)ccc2n(C)c1=O)c1ccccc1 | – | – | 37% | 39% | 84% | –
CN(C)c1cccc2c1c(O)c(C(=O)N(C)c1ccccc1)c(=O)n2C | 58% | 93% | – | – | – | inhibition in vivo at 5 mg/kg/day (Mus musculus [5]): 100%
COc1cccc2c1c(O)c(C(=O)N(C)c1cccc(Oc3ccccc3)c1)c(=O)n2C | – | – | 63% | 47% | 90% | –
CCCN(C(=O)c1c(O)c2c(Cl)cccc2n(C)c1=O)c1ccccc1 | 49% | 94% | – | – | – | inhibition in vivo at 5 mg/kg/day (Mus musculus [5]): 100%
COc1ccccc1N(C)C(=O)c1c(O)c2c(OC)cccc2n(C)c1=O | – | – | – | – | – | inhibition in vivo at 1 mg/kg/day (Mus musculus [1]): < 35%; inhibition in vivo at 0.2 mg/kg/day (Mus musculus [6]): < 35%
COc1cccc2c1c(O)c(C(=O)N(C)c1ccccc1F)c(=O)n2C | 94% | 82% | – | – | – | inhibition in vivo at 5 mg/kg/day (Mus musculus [5]): 100%
COc1cccc2c1c(O)c(C(=O)N(C)c1ccc(Cl)cc1)c(=O)n2C | – | – | 70% | 77% | 89% | –
COc1cccc(N(C)C(=O)c2c(O)c3c(OC)cccc3n(C)c2=O)c1 | – | – | 90% | 35% | 85% | –
COc1cccc2c1c(O)c(C(=O)N(C)c1ccc(F)cc1F)c(=O)n2C | 76% | 88% | – | – | – | –
CN(C(=O)c1c(O)c2cccc(C(F)(F)F)c2n(C)c1=O)c1ccc(Cl)cc1Cl | – | – | – | – | – | inhibition in vivo at 5 mg/kg/day (Mus musculus [7]): < 35%
CN(C(=O)c1c(O)c2ccc(Oc3ccccc3)cc2n(C)c1=O)c1ccc(F)cc1 | – | – | – | – | – | inhibition in vivo at 5 mg/kg/day (Mus musculus [7]): < 35%
CN(C(=O)c1c(O)c2c(Cl)cccc2n(C)c1=O)c1ccccc1 | – | – | 99% | 91% | 100% | –
COc1ccc2nc(O)c(C(=O)N(C)c3ccc(F)cc3)c(O)c2c1 | – | – | – | – | – | inhibition in vivo at 5 mg/kg/day (Mus musculus [7]): < 35%
C=CCN(C(=O)c1c(O)c2c(Cl)cccc2n(C)c1=O)c1ccccc1 | – | 59% | – | – | – | inhibition in vivo at 5 mg/kg/day (Mus musculus [5]): 81%
